Measured values from US20220053758A1, “Microcapsule With Acetamides And Diflufenican” (Monsanto Technology LLC, priority 2020, published 2022).

Legend:
[1] = tested on: GR (glyphosate resistant) palmer amaranth (AMAPA); experiment: Greenhouse pre-emergent efficacy, Example 3B; format: in vivo, Amaranthus palmeri; settings: rates tested (½× and 1×)
Description: (§1) ACC, DFF and MRB were used as the commercial products Warrant®, Brodal® and TriCor® DF as described in Example 3A above. Further, also a DFF+MRB pre-mix (200 g/L DFF+400 g/L MRB, suspension concentrate) was used. For GR (glyphosate resistant) palmer amaranth (AMAPA), at 1× rate, all 2- and 3-way treatments provided >95% control. Except for the DFF+MRB pre-mix, these treatments also provided >95% control of GR AMAPA at ½× rate as well. No single active ingredient provided acceptable control of GR AMAPA in this trial.

[2] = tested on: AMAPA (WR-2015-008), resistant against glyphosate and metribuzin (PSII-inhibitor), PPO-, HPPD- and ALS-inhibitor herbicides; experiment: Greenhouse pre-emergent efficacy on multiple resistant AMAPA, Example 3D; format: in vivo, Amaranthus palmeri; settings: 21 DAT
Method: (§2) Premixes of present disclosure were compared with ACC and DFF used as the commercial products Warrant® and Brodal® as described in Example 3A above, as well as a corresponding tank-mix of ACC+DFF. Two different pre-mix formulations according to the present disclosure were evaluated for pre-emergent efficacy on the following difficult to control multiple resistant palmer amaranth (Amaranthus palmeri, AMAPA) species: AMAPA (WR-2015-002), resistant against glyphosate, PPO-, HPPD- and ALS-inhibitor herbicides; and AMAPA (WR-2015-008), resistant against glyphosate and metribuzin (PSII-inhibitor), PPO-, HPPD- and ALS-inhibitor herbicides.
(§3) At 21 DAT (days after treatment), visual percent control as well as fresh biomass ratings were recorded for all replications. […] Percent control was then calculated based on the respective untreated control plants.

[3] = tested on: AMAPA (WR-2015-002), resistant against glyphosate, PPO-, HPPD- and ALS-inhibitor herbicides; experiment: as above; format: in vivo, Amaranthus palmeri; settings: 21 DAT
Method: as §2, §3

proso millet (PANMI) = experiment: Greenhouse pre-emergent efficacy, Example 3B; format: in vivo, Panicum miliaceum; settings: both rates tested (½× and 1×)
Description: as §1

[4] = tested on: glyphosate resistant Canola (Roundup Ready® Canola); experiment: Greenhouse post-emergent efficacy in glyphosate resistant Canola, Example 3C; format: in vivo; settings: visual rating 14 DAT
Method: ACC and DFF were used as the commercial products Warrant® and Brodal® as described in Example 3A above. The seeds of glyphosate resistant Canola (Roundup Ready® Canola) were planted in 3.5-inches (8.89 cm) square plastic pots filled with a potting media of 75% silt loam and 25% Redi-earth (Sun Gro, Bellevue, Wash.). The temperature conditions were 22° C. day and 17° C. night with 14 hours of supplemental light (approximately 600 microeinsteins). The pots are placed in a controlled-environment greenhouse equipped with sub-irrigation. The treatments applications were applied to the plants with a track sprayer generally using a TTI110015 nozzle spray nozzle. The spray nozzle was 16 inches (40.64 cm) above the top of the plants and a spray volume rate of about 140 L/ha was applied. The plants were sprayed when canola was at the V3-V4 growth stage. Visual ratings (% control) were collected at 14 DAT.

[5] = 25° C.; cited from earlier work
[6] = group line over the three rates (1×, ½×, ¼×)

Structure (SMILES)	control of GR AMAPA, in words [1]	Injury Average AMAPA (WR-2015-008) ([2]; 1× (ACC 1260, DFF 150 g ai/ha))	Injury Average AMAPA (WR-2015-008) ([2]; ½× (ACC 630, DFF 75 g ai/ha))	Injury Average AMAPA (WR-2015-002) ([3]; 1× (ACC 1260, DFF 150 g ai/ha))	Injury Average AMAPA (WR-2015-002) ([3]; ½× (ACC 630, DFF 75 g ai/ha))	control of proso millet (PANMI), in words (proso millet (PANMI))	Canola Crop Injury Average [4, 6]	Canola Crop Injury Average ([4]; ¼× (ACC 315, DFF 38 g ai/ha))	Canola Crop Injury Average ([4]; ½× (ACC 630, DFF 75 g ai/ha))	water solubility [5]
CCOCN(C(=O)CCl)c1c(C)cccc1CC [ACC, 2-chloro-N-(ethoxymethyl)-N-(2-ethyl-6-methylphenyl)acetamide]	weak control	73.8%	60.6%	81.6%	61.9%	weak control	6.7%	0.0%	2.5%	–
O=C(Nc1ccc(F)cc1F)c1cccnc1Oc1cccc(C(F)(F)F)c1 [DFF, N-(2,4-difluorophenyl)-2-[3-(trifluoromethyl)phenoxy]-3-pyridinecarboxamide]	weak control	75.6%	65.6%	70.6%	51.3%	weak control	18.3%	3.1%	13.8%	about 50 μg/L
